The record followed here is patent US20060270629A1, “Methanocarba cycloalkyl nucleoside analogues” (Govt of the U.S.A., represented by the Secretary, Dept of …, priority 2000, published 2006).

Structures can show the parent of a compound that is named as a salt. Where two headings read alike, the source gives them in different places. Where only a bound is given, the exact number is not on record here.

The target of assay [1] is turkey erythrocyte P2Y1 receptors (Meleagris gallopavo, UniProt P49652). Nature of the assay: PLC (inositol phosphate formation) assay in turkey erythrocyte membranes. As to conditions: for agonist or antagonist character at P2Y1 receptors: PLC assay.
Description: Concentration-response curves were determined for each compound alone and in combination with 10 nM 2-MeSADP.
P2Y1 receptor promoted stimulation of inositol phosphate formation by adenine nucleotide analogues was measured in turkey erythrocyte membranes as previously described. […] Erythrocyte ghosts were prepared by rapid lysis in hypotonic buffer (5 mM sodium phosphate, pH 7.4, 5 mM MgCl2, 1 mM EGTA) as described. […] Assays (200 μL final volume) contained 1 μM GTPγS and the indicated concentrations of nucleotide analogues. Ghosts were incubated at 30° C. for 5 min, and total [^3H]inositol phosphates were quantitated by anion exchange chromatography as previously described.^7,36
Agonist potencies were calculated using a four-parameter logistic equation and the GraphPad software package (GraphPad, San Diego, Calif.).
The next assay has as its target T1, cloned hA3AR (Homo sapiens, UniProt P0DMS8).
T1 sequence (P0DMS8 1-318): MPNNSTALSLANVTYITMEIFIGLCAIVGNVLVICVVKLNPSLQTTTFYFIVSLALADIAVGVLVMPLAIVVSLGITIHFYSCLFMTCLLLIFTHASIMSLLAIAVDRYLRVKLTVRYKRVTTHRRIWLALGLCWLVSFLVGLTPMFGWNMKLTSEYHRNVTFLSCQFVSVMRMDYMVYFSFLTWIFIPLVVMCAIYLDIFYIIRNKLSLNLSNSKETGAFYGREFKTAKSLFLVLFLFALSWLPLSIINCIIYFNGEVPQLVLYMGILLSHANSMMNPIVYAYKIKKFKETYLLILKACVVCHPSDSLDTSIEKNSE
As to the kind of experiment: Stimulation of [35S]GTPγS binding, CHO cell membranes expressing cloned hA3AR. As to conditions: for EC50: read-out: cloned hA3AR EC50, stimulation of basal [35S]GTPγS binding, n = 3.

The target of another assay is T2, human A3 receptors (Homo sapiens, UniProt P0DMS8).
T2 sequence (P0DMS8 1-318): T1 sequence (P0DMS8 1-318)
Nature of the assay: A3 adenosine receptor binding using [125I]AB-MECA, transfected CHO cell membranes. As to conditions: for Ki: human A3 receptors, read-out: K1 (nM), hA3.

For another assay, the target named is T3, rat A1 receptors (Rattus norvegicus, UniProt P25099).
T3 sequence (P25099 1-326): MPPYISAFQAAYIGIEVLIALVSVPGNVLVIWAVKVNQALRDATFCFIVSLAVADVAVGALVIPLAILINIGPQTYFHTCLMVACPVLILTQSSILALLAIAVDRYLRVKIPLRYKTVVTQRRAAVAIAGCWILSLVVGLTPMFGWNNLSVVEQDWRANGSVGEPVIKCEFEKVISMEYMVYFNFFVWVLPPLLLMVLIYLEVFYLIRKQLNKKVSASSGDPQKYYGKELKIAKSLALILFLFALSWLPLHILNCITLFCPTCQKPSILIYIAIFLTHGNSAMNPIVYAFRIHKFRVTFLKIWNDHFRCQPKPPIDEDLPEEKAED
Nature of the assay: Radioligand binding at rat A1 adenosine receptors. The note with it: rat A1 receptors; read-out: K1 (nM), rA1.

A further assay concerns the target rat A2A receptors (Rattus norvegicus, UniProt P30543). As to the kind of experiment: Radioligand binding at rat A2A adenosine receptors. As to conditions: for Ki: read-out: K1 (nM), rA2A.
For the next assay, the target named is T4, cloned hA1AR (Homo sapiens, UniProt P30542).
T4 sequence (P30542 1-326): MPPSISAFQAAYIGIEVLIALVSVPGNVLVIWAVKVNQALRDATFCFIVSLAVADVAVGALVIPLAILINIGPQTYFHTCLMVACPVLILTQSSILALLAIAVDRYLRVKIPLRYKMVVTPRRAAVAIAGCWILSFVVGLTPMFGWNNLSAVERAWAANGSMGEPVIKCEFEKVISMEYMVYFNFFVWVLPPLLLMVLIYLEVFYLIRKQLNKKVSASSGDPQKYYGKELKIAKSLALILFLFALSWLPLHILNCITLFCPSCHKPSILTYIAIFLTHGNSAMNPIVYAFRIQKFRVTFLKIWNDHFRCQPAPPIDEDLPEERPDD
Nature of the assay: Stimulation of [35S]GTPγS binding, CHO cell membranes expressing cloned hA1AR. As to conditions: for EC50: read-out: cloned hA1AR EC50, stimulation of basal [35S]GTPγS binding, n = 3. Background: GTPγS resists hydrolysis and so accumulates on activated G proteins.

The next assay concerns the target T5, rA1AR (Rattus norvegicus, UniProt P25099).
T5 construct: in rat cerebral cortical membranes containing the A1AR; from tissue; host or cells: rat cerebral cortical membranes
T5 sequence (P25099 1-326): T3 sequence (P25099 1-326)
Nature of the assay: Stimulation of [35S]GTPγS binding, rat cerebral cortical membranes containing the A1AR. The class given is biochemical. The note with it: read-out: rA1AR % Maximal Stimulation.

Where [2] appears, read: IC50, antagonists, P2Y1 receptors.
Setting [3] is: IC50, μM, inhibition of the effect elicited by 10 nM 2-MeSADP.
[4] abbreviates: read-out: Antagonist Effect, % of maximal inhibition.

Sequence of turkey erythrocyte P2Y1 receptors (P49652 whole entry): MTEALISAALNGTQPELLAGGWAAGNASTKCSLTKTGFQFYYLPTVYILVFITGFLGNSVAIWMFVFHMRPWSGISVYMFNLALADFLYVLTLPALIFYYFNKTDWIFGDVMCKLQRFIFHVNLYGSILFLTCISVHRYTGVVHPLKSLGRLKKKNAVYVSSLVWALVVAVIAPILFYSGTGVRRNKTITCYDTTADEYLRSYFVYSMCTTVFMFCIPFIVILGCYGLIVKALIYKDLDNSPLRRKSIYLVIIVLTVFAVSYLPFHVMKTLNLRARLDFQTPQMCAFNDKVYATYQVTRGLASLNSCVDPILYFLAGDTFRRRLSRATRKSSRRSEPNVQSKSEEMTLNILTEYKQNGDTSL
Sequence of rat A2A receptors (P30543 whole entry): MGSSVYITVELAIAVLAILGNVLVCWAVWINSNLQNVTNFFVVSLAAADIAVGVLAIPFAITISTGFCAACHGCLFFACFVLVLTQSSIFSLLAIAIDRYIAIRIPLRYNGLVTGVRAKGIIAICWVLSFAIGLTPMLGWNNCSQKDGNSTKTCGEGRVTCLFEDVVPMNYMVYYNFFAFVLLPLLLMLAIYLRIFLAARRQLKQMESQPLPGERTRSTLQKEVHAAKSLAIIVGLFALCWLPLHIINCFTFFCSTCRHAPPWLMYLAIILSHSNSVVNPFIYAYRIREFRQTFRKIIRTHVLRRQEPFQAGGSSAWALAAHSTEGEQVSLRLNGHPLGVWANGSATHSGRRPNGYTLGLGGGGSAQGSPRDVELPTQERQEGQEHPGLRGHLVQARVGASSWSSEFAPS
Description for cloned hA1AR: (§1) CHO cells stably transfected with either human A1 or A3 receptors (gift of Dr. Gary Stiles and Dr. Mark Olah, Duke University Medical Center) were cultured as monolayers in medium supplemented with 10% fetal bovine serum. […] The final pellets were resuspended in 50 mM Tris.HCl buffer, pH 7.4, containing 10 mM MgCl2 and 0.1 mM EDTA and stored at −70° C.
(§2) After transferring the filters into a vial containing 3 ml of scintillation cocktail, the radioactivity was determined in a scintillation counter.
(§3) Binding of [^35S]GTP-γ-S was studied in membranes prepared from CHO cells stably expressing human A1 or A3 receptors (Table 2).
Description for cloned hA3AR: as §1, §2, §3
Description for human A3 receptors: The final pellets were resuspended in 50 mM Tris.HCl buffer, pH 7.4, containing 10 mM MgCl2 and 0.1 mM EDTA and stored at -70° C. […] The total volume of the reaction mixture was 125 μl. Bound and free ligands were separated by rapid filtration of the reaction mixture through Whatman GF/B glass filters. The filters were immediately washed with two 5 ml-portions of ice-cold 50 mM Tris.HCl buffer (pH 7.4). The radioactivity bound to the filters was determined in a Beckman gamma counter.
Description for rA1AR: as §2
Description for rat A1 receptors: (§4) Bound and free ligands were separated by rapid filtration of the reaction mixture through Whatman GF/B glass filters. The filters were immediately washed with two 5 ml-portions of ice-cold 50 mM Tris.HCl buffer (pH 7.4). The radioactivity bound to the filters was determined in a Beckman gamma counter.
Description for rat A2A receptors: as §4

In general, IC50 refers to the concentration that gives 50% inhibition. What is called inhibition is the relative decrease from the control value, in per cent. For `CNc1ncnc2c1ncn2[C@H]1C[C@H](OP(=O)(O)O)C2(COP(=O)(O)O)C[C@H]12` (stereo partly drawn) [Compound 4b, (1R,2S,4S,5S)-1-[(phosphato)methyl]-4-(6-methylaminopurin-9-yl)bicyclo[[3.1.0.]-hexane-2-phosphatetetraammoniun salt], the IC50 in assay [1] (setting [2]) worked out at 0.276 µM; in assay [1] (setting [3]) it was 0.157 ± 0.06 µM. The “agonist or antagonist character at P2Y1 receptors” value (shortened to “agonist or antagonist character”) in assay [1] is listed as “antagonists”. For the same compound, the inhibition at 100 µM in assay [1] (setting [4]) was determined as 100%.
As a reminder, the EC50 is the concentration at which the effect is half-maximal. For the compound `OC[C@H]1O[C@@H](n2cnc3c(NC4CCCC4)ncnc32)[C@H](O)[C@@H]1O` [Compound 6a, CPA, reference compound], at cloned hA3AR ([35S]GTPγS binding), the “cloned hA3AR % Maximal Stimulation” value is 100%. The EC50 on cloned hA3AR was found to be 7.98 ± 0.06 µM. Further, on human A3 receptors, the Ki worked out at 274 ± 20 nM.
Regarding `CNc1nc(Cl)nc2c1ncn2[C@H]1C[C@H](OP(=O)(O)O)C2(COP(=O)(O)O)C[C@H]12` (stereo partly shown) [Compound 4c, (N)-Methanocarba-N^6-methyl-2-chloro-2′-deoxyadenosine-3′,5′-bis(diammonium phosphate)], the IC50 in assay [1] (setting [2]) came out at 0.053 µM; in assay [1] (setting [3]), 0.0516 ± 0.0008 µM. The “agonist or antagonist character” value in assay [1] is listed as “antagonists”. For the same compound, the inhibition at 100 µM in assay [1] (setting [4]) was 100%.
Consider `CNc1ncnc2c1ncn2[C@H]1C[C@H](OP(=O)(O)O)[C@]2(COP(=O)(O)O)C[C@H]12` [Compound 4b, (1R,2S,4S,5S)-1-[(phosphato)methyl]-4-(6-methylaminopurin-9-yl)bicyclo[[3.1.0.]-hexane-2-phosphatetetraammoniun salt], for which the Ki on rat A1 receptors was 141 ± 22 nM; at rat A2A receptors it was 732 ± 207 nM; on human A3 receptors, 2.24 ± 1.45 nM.
In the case of `OC[C@H]1C[C@@H](n2cnc3c(NCc4cccc(I)c4)ncnc32)[C@@H](O)[C@@H]1O` [Compound 7b, (1′R, 2′R,3′R,4′R)-2,3-(dihydroxy)-4-(hydroxymethyl)-1-(6-(3-idobenzylamino)purine-9-yl)cyclopentane], the “cloned hA3AR % Stimulation at 10 μM” value on cloned hA3AR ([35S]GTPγS binding, at 10 μM) stood at 15 ± 5% at 10 μM. In addition, the EC50 on cloned hA3AR and at cloned hA1AR was above 10 µM in each case. The “cloned hA1AR % Stimulation at 10 μM” value on cloned hA1AR ([35S]GTPγS binding, at 10 μM) worked out at 5 ± 2% at 10 μM. Further, the Ki at rat A1 receptors is 25900 nM; on human A3 receptors, 1960 ± 370 nM. The “% displacement, rA2A” value on rat A2A receptors (at 100 μM) is given as below 10% 100 μM. On human A3 receptors (ratio of Ki at rat A1 to Ki at A3 (human, or rat where marked (r))), the A1/A3 was 13.
In the case of `CNc1nc(Cl)nc2c1ncn2[C@H]1C[C@H](OP(=O)(O)O)[C@]2(COP(=O)(O)O)C[C@H]12` [Compound 4c, (N)-Methanocarba-N^6-methyl-2-chloro-2′-deoxyadenosine-3′,5′-bis(diammonium phosphate)], the Ki is 8730 ± 370 nM on rat A1 receptors and 25400 nM at rat A2A receptors.
For `OC[C@H]1O[C@@H](n2cnc3c(NCc4cccc(I)c4)ncnc32)[C@H](O)[C@@H]1O` [Compound 7a, reference compound], the “agonist efficacy at human A3 receptors” value at cloned hA3AR ([35S]GTPγS binding) is reported as “full A3 agonists”. Moreover, the “cloned hA3AR % Maximal Stimulation” value at cloned hA3AR ([35S]GTPγS binding) was found to be 100%. Besides, the values for the Emax at cloned hA1AR (read-out: cloned hA1AR % Maximal Stimulation) and at rA1AR were 91 ± 1% and 95 ± 4%, respectively. Also, the EC50 on cloned hA1AR turned out to be 0.0431 ± 0.0104 µM.
In the case of `Nc1ncnc2c1ncn2[C@@]12C[C@H](OP(=O)(O)O)[C@@H](COP(=O)(O)O)[C@@H]1C2` [Compound 5, (1S,3S,4R,5S)-4-[(phosphato)methyl]-1-(6-aminopurin-9-yl)bicyclo[3.1.0]-hexane-3-phosphate tetraammonium salt], in assay [1], the response was half-maximal at 13.3 µM (EC50) and the “agonist or antagonist character” value is listed as “agonist”. Further, the “IC50, μM” value in assay [1] (inhibition of the effect elicited by 10 nM 2-MeSADP) is “small decrease”. Further, the inhibition at 100 µM in assay [1] (read-out: Antagonist Effect, % inhibition at 100 μM) was 34%. Moreover, the “Agonist Effect, % of maximal increase” value in assay [1] (relative to maximal effective concentration of 2-MeSADP, NE = no effect at 100 μM) amounted to 41 ± 13%.
